Laboratory results taken from patent publication US20100129910A1, “Cell matrix related compositions and their use for generating embryoid bodies” (priority 2008, published 2010).

B1: Wnt3a: morphogen Wnt3a, 10 ng/ml (R&D systems) (protein, UniProt P56704 19-352, looked up)
Protein Wnt-3a: SYPIWWSLAVGPQYSSLGSQPILCASIPGLVPKQLRFCRNYVEIMPSVAEGIKIGIQECQHQFRGRRWNCTTVHDSLAIFGPVLDKATRESAFVHAIASAGVAFAVTRSCAEGTAAICGCSSRHQGSPGKGWKWGGCSEDIEFGGMVSREFADARENRPDARSAMNRHNNEAGRQAIASHMHLKCKCHGLSGSCEVKTCWWSQPDFRAIGDFLKDKYDSASEMVVEKHRESRGWVETLRPRYTYFKVPTERDLVYYEASPNFCEPNPETGSFGTRDRTCNVSSHGIDGCDLLCCGRGHNARAERRREKCRCVFHWCCYVSCQECTRVYDVHTCK
B2: nidogen-1: human nidogen-1 linker protein (R&D systems) (protein, UniProt P14543 29-1247, looked up)
Nidogen-1: LSRQELFPFGPGQGDLELEDGDDFVSPALELSGALRFYDRSDIDAVYVTTNGIIATSEPPAKESHPGLFPPTFGAVAPFLADLDTTDGLGKVYYREDLSPSITQRAAECVHRGFPEISFQPSSAVVVTWESVAPYQGPSRDPDQKGKRNTFQAVLASSDSSSYAIFLYPEDGLQFHTTFSKKENNQVPAVVAFSQGSVGFLWKSNGAYNIFANDRESVENLAKSSNSGQQGVWVFEIGSPATTNGVVPADVILGTEDGAEYDDEDEDYDLATTRLGLEDVGTTPFSYKALRRGGADTYSVPSVLSPRRAATERPLGPPTERTRSFQLAVETFHQQHPQVIDVDEVEETGVVFSYNTDSRQTCANNRHQCSVHAECRDYATGFCCSCVAGYTGNGRQCVAEGSPQRVNGKVKGRIFVGSSQVPIVFENTDLHSYVVMNHGRSYTAISTIPETVGYSLLPLAPVGGIIGWMFAVEQDGFKNGFSITGGEFTRQAEVTFVGHPGNLVIKQRFSGIDEHGHLTIDTELEGRVPQIPFGSSVHIEPYTELYHYSTSVITSSSTREYTVTEPERDGASPSRIYTYQWRQTITFQECVHDDSRPALPSTQQLSVDSVFVLYNQEEKILRYALSNSIGPVREGSPDALQNPCYIGTHGCDTNAACRPGPRTQFTCECSIGFRGDGRTCYDIDECSEQPSVCGSHTICNNHPGTFRCECVEGYQFSDEGTCVAVVDQRPINYCETGLHNCDIPQRAQCIYTGGSSYTCSCLPGFSGDGQACQDVDECQPSRCHPDAFCYNTPGSFTCQCKPGYQGDGFRCVPGEVEKTRCQHEREHILGAAGATDPQRPIPPGLFVPECDAHGHYAPTQCHGSTGYCWCVDRDGREVEGTRTRPGMTPPCLSTVAPPIHQGPAVPTAVIPLPPGTHLLFAQTGKIERLPLEGNTMRKTEAKAFLHVPAKVIIGLAFDCVDKMVYWTDITEPSIGRASLHGGEPTTIIRQDLGSPEGIAVDHLGRNIFWTDSNLDRIEVAKLDGTQRRVLFETDLVNPRGIVTDSVRGNLYWTDWNRDNPKIETSYMDGTNRRILVQDDLGLPNGLTFDAFSSQLCWVDAGTNRAECLNPSQPSRRKALEGLQYPFAVTSYGKNLYFTDWKMNSVVALDLAISKETDAFQPHKQTRLYGITTALSQCPQGHNYCSVNNGGCTHLCLATPGSRTCRCPDNTLGVDCIEQK

Key:
hESC lines H1 and H9 = test: hESC re-aggregation and EB formation, MEF-free modified spin EB method (Example 2); type: cell-based, human
Method: To generate MEF-free EBs, a modification of the “spin EB” method was used (8, 9). Colonies of H1 and H9 hESC (WiCell Inc) (passage 36-50) were cut into uniformed sized pieces using StemProEZPassage tool, transferred onto 6-well plates coated for 1 hour with Matrigel (growth factor reduced, no phenol red; BD Bioscience), and cultured in MEF-conditioned hESC media supplemented with 4 ng/ml FGF2. Pre-culture on Matrigel increases aggregation capacity of hESC (data not shown). After 24 hours, colonies were digested with Tryple Select into a single cell suspension, incubated with SSEA4 antibody, and SSEA4 positive cells sorted with FACS as described above. Before the sorting step 2-3% of the cells in suspension were represented by MEFs and 97-98% by hESC. After sorting, purity of hESC in the preparation was >99.9% as was measured with SSEA4 staining by FACS. These purified hESC were centrifuged at 1400 RPM and the resulting pellet was resuspended in previously described differentiation media, transferred into low attachment round-bottom 96 well culture plates (Nunc, Rochester, N.Y.) and centrifuged at 1400 RPM for 7 min with or without inducers of aggregation. To test the effects on cell aggregation, a mixture of ECMs in the form of Matrigel (5, 25, 100, 200, μg/ml) a solubilized basement membrane preparation extracted from the Engelbreth-Holm-Swarm (EHS) mouse sarcoma; murine laminin-111 and nidogen-1 complex (5, 25, 100, 200 μg/ml) from EHS sarcoma; or purified human collagen IV (1, 5, 25, 50 μg/ml) (all from BD Bioscience); human laminin-511 (1,5, 25, 50 μg/ml) (Sigma-Aldrich) and human nidogen-1 (1,5, 25, 50 μg/ml) (R&D systems) were added to the cell suspension prior to centrifugation. For directed differentiated of the EBs, differentiation media was supplemented with human vascular endothelial growth factor (VEGF), FGF2, bone morphogenic protein 4 (BMP4), or Wnt3a (all at 10 ng/ml; R&D systems) or FCS (Omega Scientific Inc. Tarzana, Calif.), prior to the final centrifugation step dependent upon experimental design.
Lower concentrations were not sufficient to aggregate all cells in the well. Higher concentrations of Matrigel increased viscosity and blocked efficient pellet formation during centrifugation.
To further dissect the mechanisms of hESC aggregation, the key ECM proteins were tested individually at a range of concentrations with regards to their capacity to assemble dispersed hESC into EBs. […] Thus, the presence of both laminin (either 111 or 511) and nidogen-1 was required for hESC aggregation.

hESC = details: cited from earlier work
hES cells = test: ES cell aggregation under different conditions (EB formation by centrifugation, Example 1); type: cell-based, human; details: inducer at 0.1 mg/ml (each protein)
From the text: Our investigations have shown that two elements when added to the hESC suspensions are sufficient to allow re-aggregation in the absence of MEF or other feeder cells. These two elements are the extracellular matrix proteins laminin and nidogen (Table 1 and FIG. 1A).
By adding human laminin and nidogen complex into suspensions of pure hES cells, cells or products of non-human origin can be completely avoided in the re-aggregation of hESC and the subsequent generation of EB. Laminin binds to the surface of hES cells through the specific receptor integrin α6 β1. […] Nidogen cross-links large molecules of laminin attached to the hES cell receptors into complex three-dimensional structures. When a laminin-nidogen mix is added to a hES cell suspension, highly viable EBs can be generated from as little as 100 hES cells (FIG. 1B).
Using our method, undifferentiated hES cells are prepared as a single cell suspension, plated (at the desired number of cells) into low attachment round bottom 96 well plates and then re-aggregated to form EBs using centrifugation in the presence of the laminin-nidogen complex. hEBs formed in this way have excellent viability, are of uniform size and contain all three germ layers (ectoderm, mesoderm and endoderm)—that can in turn be induced to generate more differentiated tissue. The simplicity of this method of hEB generation reduces the variability inherent in culture systems that require cellular components (such as MEFs) or other complex media. The simplicity of the system also facilitates the testing of variables that affect differentiation of hEB into different tissue types and improves the quantitation of any effects seen. This system may also be used for generation of chimeric EBs when different cell types (e.g., hES cells transduced with fluorescent tag can be mixed with non-transduced hES cells and re-aggregated into one EB with subsequent tracking of progenies arising from the labeled cells.

LN-EBs from hESC = test: Germ layer differentiation of LN-EBs (immunohistochemistry for nestin, CD34, alpha-fetoprotein); type: cell-based, human
Method: FIG. 4: Generation of ectodermal, mesodermal and endodermal derivatives in the “LN-EB” system. “LN-EBs” were generated with the laminin-nidogen complex and in the presence of media designed for specific germ layer differentiation. A. For induction of ectodermal derivatives, serum-free media was supplemented with Wnt3a (10 ng/ml); B. Addition of BMP4, FGF2, VEGF (all 10 ng/ml) to serum-free medium induced formation of endodermal and mesodermal derivatives. C. Addition of 10% FCS, with no exogenous growth factors, induced synchronous generation of the all three germ layers. D. Standard EBs cultured in medium supplemented with 10% FCS. E. Control EBs cultured in serum-free media with no exogenous growth factors. F. No primary antibody control of immunostaining. Immunohistochemical detection of ectoderm, mesoderm and endoderm formation was assessed using antibodies for nestin (left column), CD34 (middle column) and alpha-fetoprotein (right column) respectively. Antigen expression is shown in brown color. Nuclei are stained with hematoxylin (blue). Magnification: 200×. […]
To generate MEF-free EBs, a modification of the “spin EB” method was used (8, 9). […] After sorting, purity of hESC in the preparation was >99.9% as was measured with SSEA4 staining by FACS. […]

[1] = added individually as single agents at a range of concentrations

Molecule | hESC aggregation (hESC lines H1 and H9; [1]) | Aggregation (hES cells) | other results
human collagen-IV: purified human collagen IV (BD Bioscience) [reference compound] | No aggregation |  | 
C[C@@H](N)[C@H]1CC[C@H](C(=O)Nc2ccncc2)CC1 [Y-27632] |  |  | aggregation and EB formation of dissociated hESC (hESC; 10 μM): aggregate and form EBs; survival of hESC after dissociation to single cells (hESC): promote the survival
Collagen IV: extracellular matrix protein collagen IV |  | − | 
Fibronectin |  | − | 
human laminin-511 complexed with human nidogen-1: ultrapure human laminin-511 complexed with human nidogen-1, ratio laminin to nidogen 9:1 |  |  | hESC aggregation (hESC lines H1 and H9; laminin-511 9-22.5 μg/ml with nidogen-1 1-2.5 μg/ml, ratio laminin to nidogen 9:1): robust aggregation
Laminin |  | + (+ means very little aggregation) | 
human laminin-511: human laminin-α5β1γ1 heterotrimer (Sigma-Aldrich) | minimal aggregation |  | 
murine laminin-111-nidogen-1 complex: murine laminin-111 and nidogen-1 complex from EHS sarcoma |  |  | hESC aggregation (hESC lines H1 and H9; 100-200 μg/ml, MEF-free single cell suspension, after centrifugation): robust aggregation
B1 |  |  | germ layer derivatives suppressed in LN-EBs (LN-EBs from hESC; serum-free medium, growth factors 10 ng/ml): formation of meso-endodermal derivatives labeled with CD34 and alpha-fetoprotein respectively was almost completely abolished; germ layer derivatives formed in LN-EBs (LN-EBs from hESC; supplement in medium (growth factors 10 ng/ml serum-free, or 10% FCS), day 15): neuro-ectodermal epithelial cells that expressed nestin and formed solid neural tube-like structures were efficiently induced
B2 | minimal aggregation |  | 
